Tests used:
[1] = molecular target: T1, PI3Kα (wild-type), P110/P85α (Homo sapiens, UniProt P42336); experiment: PI3 Kinase TR-FRET assay, PI3Kα (wild-type); format: biochemical
T1 construct: made in house; host or cells: SF9 insect cells
How it was run: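 Sf9-expressed His-purified P110/P85α (5 ng) preincubated 60 min RT with compound and PIP2 in buffer with 40 mM MgCl2, 5 mM DTT; reaction started with ATP (PIP2 and ATP both 10 μM), 30 min RT. PIP3 detected by TR-FRET displacement, 665/615 nm ratio; IC50 from dose-response curves.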

mTOR kinase = molecular target: T2, mTOR kinase (Homo sapiens, UniProt P42345); experiment: mTOR kinase TR-FRET assay; format: biochemical; conditions: read-out: mTO R
T2 construct: purchased Millipore, USA
How it was run: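 Compounds preincubated 60 min with mTOR (5 ng) in HEPES pH 7.5, EGTA, MnCl2; ULight-p70 S6K Thr389 peptide (50 nM) and ATP (20 μM) then added, 60 min at room temperature. EDTA-stopped, Eu-anti-phospho antibody detection by TR-FRET (665/615 nm); IC50 from variable-slope sigmoidal fit.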

T1 sequence (P42336 whole entry): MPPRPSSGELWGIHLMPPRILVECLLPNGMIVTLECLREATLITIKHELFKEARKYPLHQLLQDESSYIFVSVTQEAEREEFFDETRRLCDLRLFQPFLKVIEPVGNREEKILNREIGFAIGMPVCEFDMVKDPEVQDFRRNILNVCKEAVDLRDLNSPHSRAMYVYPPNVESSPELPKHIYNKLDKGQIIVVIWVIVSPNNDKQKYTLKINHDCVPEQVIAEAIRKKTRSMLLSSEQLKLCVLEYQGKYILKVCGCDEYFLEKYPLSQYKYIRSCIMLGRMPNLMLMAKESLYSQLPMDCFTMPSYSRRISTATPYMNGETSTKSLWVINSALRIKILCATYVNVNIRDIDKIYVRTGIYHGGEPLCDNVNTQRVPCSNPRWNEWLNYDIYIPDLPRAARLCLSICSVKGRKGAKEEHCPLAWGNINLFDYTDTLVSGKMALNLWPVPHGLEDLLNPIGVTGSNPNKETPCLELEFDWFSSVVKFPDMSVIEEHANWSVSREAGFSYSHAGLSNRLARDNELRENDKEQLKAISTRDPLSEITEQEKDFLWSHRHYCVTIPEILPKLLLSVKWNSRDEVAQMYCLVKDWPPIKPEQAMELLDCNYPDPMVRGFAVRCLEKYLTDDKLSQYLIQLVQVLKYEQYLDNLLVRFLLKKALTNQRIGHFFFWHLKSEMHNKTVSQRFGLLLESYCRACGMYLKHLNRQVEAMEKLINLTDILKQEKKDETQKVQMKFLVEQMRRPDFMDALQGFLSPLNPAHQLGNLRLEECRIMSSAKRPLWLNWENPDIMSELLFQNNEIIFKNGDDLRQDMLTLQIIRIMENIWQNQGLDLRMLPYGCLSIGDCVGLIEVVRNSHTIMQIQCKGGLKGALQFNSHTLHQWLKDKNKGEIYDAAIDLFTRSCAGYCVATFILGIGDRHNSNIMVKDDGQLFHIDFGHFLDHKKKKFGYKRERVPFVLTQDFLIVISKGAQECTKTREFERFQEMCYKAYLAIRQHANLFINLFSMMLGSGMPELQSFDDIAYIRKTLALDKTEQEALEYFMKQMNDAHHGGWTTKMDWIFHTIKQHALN
T1 sequence (P27986 whole entry partner): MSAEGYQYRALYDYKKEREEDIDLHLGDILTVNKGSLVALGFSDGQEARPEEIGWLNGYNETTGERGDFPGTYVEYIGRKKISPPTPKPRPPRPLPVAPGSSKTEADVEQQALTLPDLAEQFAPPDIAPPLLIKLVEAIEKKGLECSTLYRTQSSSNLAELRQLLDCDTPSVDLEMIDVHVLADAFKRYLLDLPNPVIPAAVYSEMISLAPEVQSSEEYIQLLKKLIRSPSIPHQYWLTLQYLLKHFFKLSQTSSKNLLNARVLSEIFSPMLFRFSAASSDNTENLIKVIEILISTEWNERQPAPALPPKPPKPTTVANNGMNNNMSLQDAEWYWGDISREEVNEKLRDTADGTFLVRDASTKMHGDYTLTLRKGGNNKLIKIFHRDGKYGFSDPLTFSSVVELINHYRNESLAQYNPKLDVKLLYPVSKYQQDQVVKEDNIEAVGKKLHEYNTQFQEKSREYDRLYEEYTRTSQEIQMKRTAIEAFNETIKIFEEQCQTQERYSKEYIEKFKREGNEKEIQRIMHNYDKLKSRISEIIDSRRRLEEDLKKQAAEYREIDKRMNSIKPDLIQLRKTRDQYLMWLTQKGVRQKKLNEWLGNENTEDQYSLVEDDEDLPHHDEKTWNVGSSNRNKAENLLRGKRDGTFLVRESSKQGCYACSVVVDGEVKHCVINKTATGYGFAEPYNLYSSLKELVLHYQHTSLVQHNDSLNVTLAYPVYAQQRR

Row | Compound | IC50 [1] [nM] | IC50 (mTOR kinase) [nM]
1 | CN(C)C(=O)c1ccc(NC(=O)Nc2ccc(-c3nc(N4CCOCC4)c4ccc(-c5ccco5)cc4n3)cc2)c(Cl)c1 [Example 171, 3-chloro-4-(3-(4-(7-(furan-2-yl)-4-morpholino-quinazolin-2-yl)phenyl)ureido)-N,N-dimethyl-benzamide] | 201 to 10000 | 201 to 10000
2 | CN(C)C(=O)c1ccc(NC(=O)Nc2ccc(-c3nc(N4CCOCC4)c4ccc(-c5cnn(C)c5)cc4n3)cn2)c(F)c1 [Example 172, 3-fluoro-N,N-dimethyl-4-(3-(5-(7-(1-methyl-1H-pyrazol-4-yl)-4-morpholino-quinazolin-2-yl)pyridin-2-yl)ureido)-benzamide] | < 50 | 201 to 10000
3 | CN(C)C(=O)c1ccc(NC(=O)Nc2ccc(-c3nc(N4CCOCC4)c4cc(F)c(-c5cccnc5)cc4n3)cc2)c(F)c1 [Example 173, 3-fluoro-4-(3-(4-(6-fluoro-4-morpholino-7-(pyridin-3-yl)quinazolin-2-yl)phenyl)ureido)-N,N-dimethyl-benzamide] | < 50 | < 50
4 | CN(C)C(=O)c1ccc(NC(=O)Nc2ccc(-c3nc(N4CCOCC4)c4cc(F)c(-c5cncnc5)cc4n3)cc2)c(F)c1 [Example 174, 3-fluoro-4-(3-(4-(6-fluoro-4-morpholino-7-(pyrimidin-5-yl)quinazolin-2-yl)phenyl)ureido)-N,N-dimethyl-benzamide] | 50 to 200 | < 50
5 | CN(C)C(=O)c1ccc(NC(=O)Nc2ccc(-c3nc(N4CCOCC4)c4cc(F)c(-c5cccnc5)cc4n3)cn2)cc1 [Example 175, 4-(3-(5-(6-fluoro-4-morpholino-7-(pyridin-3-yl)quinazolin-2-yl)pyridin-2-yl)ureido)-N,N-dimethyl-benzamide] | < 50 | 50 to 200
6 | CN(C)C(=O)c1ccc(NC(=O)Nc2ccc(-c3nc(N4CCOCC4)c4cc(F)c(-c5cncnc5)cc4n3)cn2)cc1 [Example 176, 4-(3-(5-(6-fluoro-4-morpholino-7-(pyrimidin-5-yl)quinazolin-2-yl)pyridin-2-yl)ureido)-N,N-dimethyl-benzamide] | < 50 | 50 to 200
7 | CN(C)C(=O)c1ccc(NC(=O)Nc2ccc(-c3nc(N4CCOCC4)c4ccc(-c5ccc(N)nc5)cc4n3)cc2)cc1 [Example 177, 4-(3-(4-(7-(6-aminopyridin-3-yl)-4-morpholino-quinazolin-2-yl)phenyl)ureido)-N,N-dimethyl-benzamide] | < 50 | < 50
8 | CN(C)C(=O)c1ccc(NC(=O)Nc2ccc(-c3nc(N4CCOCC4)c4ccc(-c5ccc(N)nc5)cc4n3)cc2)c(F)c1 [Example 178, 4-(3-(4-(7-(6-aminopyridin-3-yl)-4-morpholino-quinazolin-2-yl)phenyl)ureido)-3-fluoro-N,N-dimethyl-benzamide] | 50 to 200 | < 50
9 | COc1ccc2c(N3CCOCC3)nc(-c3ccc(NC(=O)Nc4ccc(C(=O)N(C)C)cc4)c(F)c3)nc2c1 [Example 182, 4-(3-(2-fluoro-4-(7-methoxy-4-morpholino-quinazolin-2-yl)phenyl)ureido)-N,N-dimethyl-benzamide] | 50 to 200 | < 50
10 | CN(C)CCNC(=O)c1ccc(NC(=O)Nc2ccc(-c3nc(N4CCOCC4)c4ccc(-c5cncnc5)cc4n3)cc2)cc1 [Example 192, N-(2-(dimethylamino)ethyl)-4-(3-(4-(4-morpholino-7-(pyrimidin-5-yl)quinazolin-2-yl)phenyl)ureido)-benzamide] | 50 to 200 | < 50
11 | CN1CCN(C(=O)c2ccc(NC(=O)Nc3ccc(-c4nc(N5CCOCC5)c5ccc(-c6ccncc6)cc5n4)cc3F)cc2)CC1 [Example 212, 1-(2-fluoro-4-(4-morpholino-7-(pyridin-4-yl)quinazolin-2-yl)phenyl)-3-(4-(4-methylpiperazine-1-carbonyl)phenyl)urea] | 50 to 200 | 50 to 200
12 | CN(C)C(=O)c1ccc(NC(=O)Nc2ccc(-c3nc(N4CCOCC4)c4ncc(-c5ccc(CO)o5)cc4n3)cc2F)cc1 [Example 218, 4-(3-(2-fluoro-4-(7-(5-(hydroxymethyl)furan-2-yl)-4-morpholino-pyrido[3,2-d]pyrimidin-2-yl)phenyl)ureido)-N,N-dimethyl-benzamide] | < 50 | 50 to 200
13 | CN(C)C(=O)c1ccc(NC(=O)Nc2ccc(-c3nc(N4CCOCC4)c4ccc(-c5ccc(CO)o5)cc4n3)cc2)c(F)c1 [Example 219, 3-fluoro-4-(3-(4-(7-(5-(hydroxymethyl)furan-2-yl)-4-morpholino-quinazolin-2-yl)phenyl)ureido)-N,N-dimethyl-benzamide] | 50 to 200 | 50 to 200
14 | CN(C)CCNC(=O)c1ccc(-c2ccc3c(N4CCOCC4)nc(-c4ccc(NC(=O)Nc5ccc(C(=O)N(C)C)cc5)cc4)nc3c2)o1 [Example 225, N-(2-(dimethylamino)ethyl)-5-(2-(4-(3-(4-(dimethylcarbamoyl)phenyl)ureido)phenyl)-4-morpholino-quinazolin-7-yl)furan-2-carboxamide] | 50 to 200 | < 50
15 | CC(O)c1ccc(-c2ccc3c(N4CCOCC4)nc(-c4ccc(NC(=O)Nc5ccc(C(=O)N(C)C)cc5F)cc4)nc3c2)o1 (stereo not shown) [Example 227, 3-fluoro-4-(3-(4-(7-(5-(1-hydroxyethyl)furan-2-yl)-4-morpholino-quinazolin-2-yl)phenyl)ureido)-N,N-dimethyl-benzamide] | 201 to 10000 | 50 to 200
16 | CN(C)C(=O)c1ccc(NC(=O)Nc2ccc(-c3nc(N4CCOCC4)c4ccc(-c5ccc(C(=O)N(C)C)o5)cc4n3)cc2)cc1 [Example 229, 5-(2-(4-(3-(4-(dimethylcarbamoyl)phenyl)ureido)phenyl)-4-morpholine-quinazolin-7-yl)-N,N-dimethylfuran-2-carboxamide] | < 50 | < 50
17 | CN(C)C(=O)c1ccc(NC(=O)Nc2ccc(-c3nc(N4CCOCC4)c4ncc(-c5cnc(N(C)C)nc5)cc4n3)cc2)cc1 [Example 230, 4-(3-(4-(7-(2-(dimethylamino)pyrimidin-5-yl)-4-morpholino-pyrido[3,2-d]pyrimidin-2-yl)phenyl)ureido)-N,N-dimethyl-benzamide] | < 50 | < 50
18 | CN(C)C(=O)c1ccc(NC(=O)Nc2ccc(-c3nc(N4CCOCC4)c4ccc(-c5cnc(N(C)C)nc5)cc4n3)cc2F)cc1 [Example 231, 4-(3-(4-(7-(2-(dimethylamino)pyrimidin-5-yl)-4-morpholino-quinazolin-2-yl)-2-fluorophenyl)ureido)-N,N-dimethyl-benzamide] | 50 to 200 | < 50
19 | O=C(Nc1ccc(C(=O)N2CCC(O)C2)cc1)Nc1ccc(-c2nc(N3CCOCC3)c3ccc(-c4ccco4)cc3n2)cc1 (stereo not shown) [Example 232, 1-(4-(7-(furan-2-yl)-4-morpholino-quinazolin-2-yl)phenyl)-3-(4-(3-hydroxypyrrolidine-1-carbonyl)phenyl)urea] | < 50 | < 50
20 | CN(C)CCNC(=O)c1ccc(NC(=O)Nc2ccc(-c3nc(N4CCOCC4)c4ccc(-c5ccco5)cc4n3)cc2)cc1 [Example 235, N-(2-(dimethylamino)ethyl)-4-(3-(4-(7-(furan-2-yl)-4-morpholino-quinazolin-2-yl)phenyl)ureido)-benzamide] | < 50 | < 50

— patent US9115092B2, “Substituted quinazoline and pyrido-pyrimidine derivatives” (Asana Biosciences, LLC, priority 2010, dated 2015)
